Data published in patent US20130012709A1, “NOVEL INHIBITORS OF STEAROYL-CoA-DESATURASE-1 AND THEIR USES” (CENTRE NATIONAL DE LA RECHERCHE SCIENTIFIQUE, priority 2009, published 2013).
Read-outs that look alike come from different tables or passages of the source.

Tests used:
SCDs = experiment: Determination of SCD activity in transformed MEFs; type: cell-based, mouse; conditions: 25 μM
Procedure: Subconfluent LNCaP, C4-2, PNT2 of Ras SV40 MEFs cells grown in 6-wells plate were incubated with the tested inhibitor at 25 μM for 2 h in serum and fatty acid-free DMEM media supplemented 0.2% BSA. In this environment, the cells are solely dependent on endogenous fatty acid synthesis for production of storage, structural and signaling lipids. Trace amount of [^14C] palmitic acid were then added to the culture (0.5 μCi/well), and cells were incubated for 6 more hours. At the end of the incubation, total cell lipids were extracted and saponified, then released fatty acids were esterified with boron trifluoride in methanol for 90 min at 100° C. The derived methyl esters were separated by argentation TLC (Thermo Fisher Scientific) following the procedure of Wilson and Sargen, using a solvent phase consisting of hexane:ethyl ether (90:10, by vol) (35). Pure stearic and oleic methyl ester acids were run in parallel to the samples. Air-dried plates were scanned on a Phosphorlmager and fatty acid spots on TLC were analysed with Phosphorlmager software. SCD activity was expressed as the ratio of palmitoleic on palmitic methyl ester acids and normalized to cellular DNA content.

C4-2 cells [1] = experiment: Proliferation assay (cell counting); type: cell-based, human; conditions: C4-2, maximal dose used
Procedure: (§1) At 24 h, 48 h, 72 h and 96 h following addition of increasing concentrations of the tested compound in DMSO or DMSO alone, cells were trypsinized, pelleted by centrifugation at 1200 rpm for 5 min, resuspended in 500 μl of culture medium and counted in an hemocytometer.

LNCaP cells [2] = experiment: Proliferation assay (cell counting); type: cell-based, human; conditions: maximal dose used
Procedure: as §1

PNT2 cells = experiment: Proliferation assay (cell counting); type: cell-based, human; conditions: non-cancerous PNT2, even at a maximal dose
Procedure: as §1

C4-2 cells [3] = experiment: Measurement of de novo fatty acid synthesis; type: cell-based; conditions: Homo sapiens, C4-2, 25 μM
Procedure: (§2) The tested inhibitor was added overnight at a final concentration of 25 μM to subconfluent cultures of cells grown in 6-wells plate in serum and fatty acid-free DMEM media supplemented with 0.2% BSA. Cultures were then labeled in triplicate with 1.0 μCi of [U—^14C]-palmitate or -stearate for 6 h, and total lipids were folch extracted with chloroform/methanol. Labeled lipids were subjected to TLC in hexane/diethyl ether/acetic acid 90:10:1 (V/V), to separate cholesterol ester, triglycerides and phospholipids. Standards were run for each of the lipid classes. After chromatography, labeled lipid classes were quantified by scintillation counting and radioactivity was normalized to DNA content.

LNCaP cells [4] = experiment: Measurement of de novo fatty acid synthesis; type: cell-based; conditions: Homo sapiens
Procedure: as §2

C4-2 cells [5] = experiment: Phospho-kinase array and immunoblot; type: cell-based, human
Procedure: (§3) Protein extracts and sodium dodecyl sulfate (SDS)-polyacrylamide gel electrophoresis (PAGE), electrotransfer and immunoblotting were performed as previously described (34). The primary antibodies rabbit anti-AMPK, rabbit anti-phospho AMPK (Thr172), rabbit anti-Akt and rabbit anti-phospho Akt were purchased from Cell signalling Technology (Ozyme, Saint Quentin Yvelines, France). The primary antibody mouse anti-tubulineα was purchased from Lab Vision (Thermo Fisher Scientific, Microm France, Francheville, France). The primary antibodies rabbit anti-p44/p42 MAPK, rabbit anti-phospho p44/p42 MAPK (Thr202/Tyr204), mouse anti-GSK3α/β, and rabbit anti-phospho GSK3α/β were kindly provided by Dr Gilles Freiss. LNCaP and C4-2 cells treated with the tested compound at 25 μM were analyzed for the relative phosphorylation of 46 kinase phosphorylation sites using human phospho-kinase array kit (Proteome Profiler™) according to the manufacturers' recommendations (R&D systems Europe, Lille, France).

LNCaP cells [6] = experiment: Phospho-kinase array and immunoblot; type: cell-based, human
Procedure: as §3

C4-2 cells [7] = experiment: PI(3,4,5)P3 mass ELISA; type: cell-based, human; conditions: C4-2, 25 μM, 24 h, vs non-treated cells
Procedure: (§4) The production of PI(3,4,5)P3 (PIP3) in LNCaP and C4-2 prostate cancer cells was measured 24 h following exposure to control medium or to medium supplemented with the inhibitor tested at 25 μM. The levels of produced PIP3 were quantified after cellular lipids extraction using a PI(3,4,5)P3 mass ELISA kit according to the manufacturer's instruction.

LNCaP cells [8] = experiment: PI(3,4,5)P3 mass ELISA; type: cell-based, human; conditions: 25 μM, 24 h, vs non-treated cells
Procedure: as §4

[9] = read-out: inhibition of [U-14C]-palmitate incorporation into phospholipids
[10] = read-out: inhibition of [U-14C]-palmitate incorporation into sterol esters
[11] = read-out: inhibition of [U-14C]-palmitate incorporation into triglycerides
[12] = read-out: inhibition of [U-14C]-stearate incorporation into phospholipids
[13] = read-out: inhibition of [U-14C]-stearate incorporation into sterol esters
[14] = read-out: inhibition of [U-14C]-stearate incorporation into triglycerides

COc1ccc(Br)c(C(=O)N2CCN(c3ccc(C(=O)NCCCc4ccccc4)cn3)CC2)c1 [BZ36]
[14C]-palmitoleic to palmitic methyl ester acids ratio (SCDs): decreased lipogenesis
inhibition of cell proliferation (C4-2 cells [1]): 100%
inhibition of cell proliferation (LNCaP cells [2]): 100%
effect in proliferation (PNT2 cells): no effect
inhibition at 25 µM (C4-2 cells [3]; [9]): 41%
inhibition at 25 µM (C4-2 cells [3]; [10]): 33%
inhibition at 25 µM (C4-2 cells [3]; [11]): 24%
inhibition at 25 µM (C4-2 cells [3]; [12]): 49%
inhibition at 25 µM (C4-2 cells [3]; [13]): 70%
inhibition at 25 µM (C4-2 cells [3]; [14]): 19%
inhibition at 25 µM (LNCaP cells [4]; [9]): 58%
inhibition at 25 µM (LNCaP cells [4]; [10]): 39%
inhibition at 25 µM (LNCaP cells [4]; [11]): 27%
inhibition at 25 µM (LNCaP cells [4]; [12]): 81%
inhibition at 25 µM (LNCaP cells [4]; [13]): 77%
inhibition at 25 µM (LNCaP cells [4]; [14]): 78%
phosphorylation of GSK3a/13 (C4-2 cells [5]; C4-2): abrogated
phosphorylation of AMPKcc (C4-2 cells [5]; C4-2, 25 μM): increased
Akt phosphorylation (5473/T308) (C4-2 cells [5]; C4-2, 25 μM, vs non-treated cells): decrease
phosphorylation of ERK1/2 (C4-2 cells [5]; C4-2, immunoblot): decreased phosphorylation
phosphorylation of MEK1/2 (S218/5222, S222/S226) (C4-2 cells [5]; C4-2, vs control cells): Significant decreases
phosphorylation of GSK3a/13 (LNCaP cells [6]): abrogated
phosphorylation of AMPKcc (LNCaP cells [6]; 25 μM): increased
Akt phosphorylation (5473/T308) (LNCaP cells [6]; 25 μM, vs non-treated cells): decrease
phosphorylation of ERK1/2 (LNCaP cells [6]; immunoblot): decreased phosphorylation
decrease of PI(3,4,5)P3 concentration (C4-2 cells [7]): 92%
decrease of PI(3,4,5)P3 concentration (LNCaP cells [8]): 84%
